# Results as given in US9566342B2, “Compounds for treatment of heart failure” (SOLVOTRIN INNOVATIONS LIMITED, priority 2010, dated 2017).
# Where “and” joins values, the source holds several entries; their conditions need not be identical. Identical values can stand only once.
# What was measured:
# [1] = biological target: T1, MMP-2 (Homo sapiens, UniProt P08253); assay: Model of direct enzyme inhibition, MMP-2 (IC50); type: biochemical
# T1 sequence (P08253 110-660): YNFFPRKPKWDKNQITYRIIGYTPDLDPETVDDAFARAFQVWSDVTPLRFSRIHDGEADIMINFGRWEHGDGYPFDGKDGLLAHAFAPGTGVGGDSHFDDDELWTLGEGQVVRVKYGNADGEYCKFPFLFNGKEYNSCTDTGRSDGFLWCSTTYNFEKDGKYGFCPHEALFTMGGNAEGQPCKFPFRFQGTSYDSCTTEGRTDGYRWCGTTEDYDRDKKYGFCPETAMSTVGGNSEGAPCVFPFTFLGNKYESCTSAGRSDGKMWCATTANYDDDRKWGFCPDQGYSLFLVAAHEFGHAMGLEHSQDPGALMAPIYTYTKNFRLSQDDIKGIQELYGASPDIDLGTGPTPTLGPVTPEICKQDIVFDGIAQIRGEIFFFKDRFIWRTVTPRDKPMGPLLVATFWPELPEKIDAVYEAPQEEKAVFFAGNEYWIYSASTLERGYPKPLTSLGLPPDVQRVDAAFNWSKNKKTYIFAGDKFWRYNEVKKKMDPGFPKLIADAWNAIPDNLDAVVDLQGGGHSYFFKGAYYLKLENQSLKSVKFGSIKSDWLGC
# [2] = biological target: T1, MMP-2; assay: Direct inhibition of recombinant MMP-2, fluorogenic substrate; type: biochemical; design: purchased R&D Systems, Ireland; settings: 100 μM; read-out: inhibition of recombinant human MMP-2
# [3] = tested on: MMP-9 mRNA; assay: TNFα treated human cardiac fibroblasts, MMP-9 transcription (QPCR); type: cell-based; settings: HCF
# [4] = biological target: T2, MMP-9 (Homo sapiens, UniProt P14780); assay: Direct inhibition of recombinant MMP-9, fluorogenic substrate; type: biochemical; design: purchased R&D Systems, Ireland; settings: 100 μM; read-out: inhibition of recombinant human MMP-9
# T2 sequence (P14780 94-707): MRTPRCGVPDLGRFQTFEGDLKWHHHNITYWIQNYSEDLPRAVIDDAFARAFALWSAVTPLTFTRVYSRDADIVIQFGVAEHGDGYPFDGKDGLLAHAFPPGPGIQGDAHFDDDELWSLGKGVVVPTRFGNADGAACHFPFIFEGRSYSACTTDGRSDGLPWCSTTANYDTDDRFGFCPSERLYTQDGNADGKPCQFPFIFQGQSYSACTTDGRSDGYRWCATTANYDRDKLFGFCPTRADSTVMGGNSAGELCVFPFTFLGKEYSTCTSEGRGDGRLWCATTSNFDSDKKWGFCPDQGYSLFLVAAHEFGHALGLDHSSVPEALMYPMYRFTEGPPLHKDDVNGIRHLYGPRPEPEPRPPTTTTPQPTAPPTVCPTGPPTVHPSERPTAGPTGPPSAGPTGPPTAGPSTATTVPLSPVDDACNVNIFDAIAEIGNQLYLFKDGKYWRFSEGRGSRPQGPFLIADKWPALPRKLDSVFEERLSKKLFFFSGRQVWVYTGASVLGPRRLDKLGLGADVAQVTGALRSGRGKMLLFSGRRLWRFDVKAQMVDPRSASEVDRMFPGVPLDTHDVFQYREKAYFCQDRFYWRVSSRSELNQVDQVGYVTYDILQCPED
# [5] = Blood pressure in non-human primates; settings: cynomolgus monkeys, over dosing period
# [6] = Plasma doxycycline and nitrite/nitrate (NOx) in non-human primates; type: in vivo, cynomolgus monkeys; settings: cynomolgus monkey, po, 4.8 mg/kg doxycycline hyclate, day 3 of dosing, base equivalents, read-out: Maximum plasma doxycycline concentration (Cmax)
# [7] = biological target: T3, MMP-1 (Homo sapiens, UniProt P03956); assay: Direct enzyme inhibition, MMP-1; type: biochemical; settings: 100 μM
# T3 sequence (P03956 100-469): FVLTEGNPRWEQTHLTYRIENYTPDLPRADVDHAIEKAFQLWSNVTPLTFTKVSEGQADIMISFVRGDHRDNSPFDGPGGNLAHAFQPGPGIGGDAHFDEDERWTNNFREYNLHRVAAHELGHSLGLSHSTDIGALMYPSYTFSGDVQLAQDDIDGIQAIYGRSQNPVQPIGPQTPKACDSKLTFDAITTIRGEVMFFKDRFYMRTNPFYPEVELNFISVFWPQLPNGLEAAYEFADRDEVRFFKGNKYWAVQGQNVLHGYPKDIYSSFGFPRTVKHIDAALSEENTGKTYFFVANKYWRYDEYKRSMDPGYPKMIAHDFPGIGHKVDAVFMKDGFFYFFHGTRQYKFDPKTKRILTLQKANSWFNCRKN
# [8] = tested on: Human Peripheral Blood mononuclear cells (PBMC) stimulated with TNF-α; assay: MMPs, TIMP-1 and inflammatory markers in supernatants of PBMC stimulated with TNF-α; type: cell-based
# [9] = tested on: MMP-2; assay: PMA stimulated breast cancer cell model (HT1080 cells), pro-MMP-2 / MMP-2; type: cell-based; settings: HT1080 cells, PMA
# [10] = tested on: MMP-9; assay: Total MMP-9 levels on repeated oral administration in non-human primates; type: in vivo, cynomolgus monkeys
# [11] = tested on: MMP-2 mRNA; assay: TNFα treated human cardiac fibroblasts, MMP-2 transcription (QPCR); type: cell-based; settings: HCF, 10 ng/mL TNFα 72 hours, 75 or 150 μM
# [12] = tested on: MMP-2; assay: PMA-stimulated CaCo2 cells, zymography of media, MMP-2; type: cell-based; settings: 150 uM
# [13] = biological target: T2, MMP-9; assay: Model of direct enzyme inhibition, MMP-9 (IC50); type: biochemical
# [14] = tested on: human colon cancer cells; assay: Colon cancer cell invasiveness, in vitro model; type: cell-based; settings: low dose, FIG. 10
# [15] = biological target: MMP-8 (Homo sapiens, UniProt P22894); assay: Direct enzyme inhibition, MMP-8; type: biochemical; settings: 100 μM
# Chain of MMP-8 (P22894 101-467, species assumed): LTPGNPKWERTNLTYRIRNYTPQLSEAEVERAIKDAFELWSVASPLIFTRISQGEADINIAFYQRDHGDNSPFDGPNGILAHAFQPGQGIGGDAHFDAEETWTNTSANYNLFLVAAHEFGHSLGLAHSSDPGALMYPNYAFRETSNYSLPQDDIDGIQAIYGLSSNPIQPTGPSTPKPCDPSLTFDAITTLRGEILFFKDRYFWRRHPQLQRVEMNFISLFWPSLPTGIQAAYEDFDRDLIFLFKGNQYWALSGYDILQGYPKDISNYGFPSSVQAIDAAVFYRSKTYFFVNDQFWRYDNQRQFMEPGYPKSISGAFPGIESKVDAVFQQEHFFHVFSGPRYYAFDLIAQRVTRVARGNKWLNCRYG
# [16] = tested on: MMP-9; assay: PMA-stimulated CaCo2 cells, zymography of media, MMP-9; type: cell-based; settings: CaCo2 cells, PMA, 150 uM
# [17] = biological target: MMP-13 (Homo sapiens, UniProt P45452); assay: Direct enzyme inhibition, MMP-13; type: biochemical; settings: 100 μM
# [18] = tested on: MMP-9; assay: PMA stimulated fibrosarcoma cell model (HT1080 cells), MMP-9; type: cell-based; settings: 100 micromolar
# [19] = cancer patients, Phase I, cited from earlier work
# [20] = 75 μM, 24 hours, TNFα, mean ± SEM
# [21] = 150 μM, 24 hours, TNFα, mean ± SEM
smiles,measurement,setting,value
"C[C@H]1c2cccc(O)c2C(=O)C2=C(O)[C@]3(O)C(=O)C(C(N)=O)=C(O)[C@@H](N(C)C)[C@@H]3[C@@H](O)[C@@H]21 [Doxycycline, (4S,4aR,5S,5aR,6R,12aS)-4-(dimethylamino)-3,5,10,12,12a-pentahydroxy-6-methyl-1,11-dioxo-1,4,4a,5,5a,6,11,12a-octahydrotetracene-2-carboxamide, reference compound]",IC50,[1],~129 µM and 129 µM
same,inhibition at 100 µM,[2],34 ± 3.5%
same,MMP-9 protein levels in treated cell supernatants,[3],below the lower limit of quantification
same,TNFα induced upregulation of MMP-9 mRNA,"[3]; 10 ng/mL TNFα 72 hours, 75 or 150 μM","In contrast to doxycycline hyclate, SI1004 significantly inhibited"
same,inhibition at 100 µM,[4],33.3 ± 3.5%
same,diastolic blood pressure,[5],58.6±6.0 mmHg
same,mean systolic blood pressure,[5],109.7±7.1 mmHg
same,Cmax,[6],5.1 µM
same,inhibition at 100 µM,[7],~12%
same,Interleukin-1β protein level in PBMC supernatant,[8]; [20],34.6 ± 5.8 ng/mL
same,Interleukin-4 protein level in PBMC supernatant,[8]; [20],9.4 ± 1.2 ng/mL
same,Interleukin-5 protein level in PBMC supernatant,[8]; [20],40.8 ± 9.0 ng/mL
same,Interleukin-8 protein level in PBMC supernatant,[8]; [20],8852 ± 2568 ng/mL
same,Interleukin-10 protein level in PBMC supernatant,[8]; [20],136.6 ± 74.2 ng/mL
same,Interleukin-13 protein level in PBMC supernatant,[8]; [20],79.6 ± 17.2 ng/mL
same,MMP-1 protein level in PBMC supernatant,[8]; [20],144.0 ± 80.0 ng/mL
same,MMP-2 protein level in PBMC supernatant,[8]; [20],61.4 ± 54.2 ng/mL
same,MMP-10 protein level in PBMC supernatant,[8]; [20],36.0 ± 14.0 ng/mL
same,Interleukin-1β protein level in PBMC supernatant,[8]; [21],30.6 ± 5.0 ng/mL
same,Interleukin-4 protein level in PBMC supernatant,[8]; [21],9.8 ± 0.8 ng/mL
same,Interleukin-5 protein level in PBMC supernatant,[8]; [21],31.2 ± 5.8 ng/mL
same,Interleukin-10 protein level in PBMC supernatant,[8]; [21],92.2 ± 33.8 ng/mL
same,Interleukin-13 protein level in PBMC supernatant,[8]; [21],80.2 ± 3.2 ng/mL
same,MMP-1 protein level in PBMC supernatant,[8]; [21],134 ± 48 ng/mL
same,MMP-2 protein level in PBMC supernatant,[8]; [21],96.8 ± 80.6 ng/mL
same,MMP-10 protein level in PBMC supernatant,[8]; [21],47.6 ± 15.8 ng/mL
same,"IL-8 levels in TNFalpha stimulated PBMCs (admixture study, FIG. 14)",[8]; 150 micromolar,also reduce IL-8 levels compared to controls
same,conversion of pro-MMP-2 to active MMP-2 (activation of MMP-2),[9]; 100 μM,increase the conversion of available pro-MMP-2 to active MMP-2
same,pro-MMP-2 production,[9]; 100 micromolar,reduce pro-MMP-2 production
same,"total plasma MMP-9, median AUC","[10]; NHPs, daily orogastric gavage for 72 hours, n=6",8.7 µg·h/mL
same,change in MMP-9 from baseline to 72 hours,"[10]; cynomolgus monkeys, oral gavage once daily for three days, n=6 per group",MMP-9 levels increase
same,MMP-2 mRNA expression,[11],no significant effects
same,inhibition of MMP-2 activity relative to PMA positive control,[12],80%
same,IC50,[13],~164 µM and 164 µM
same,colon cancer cell invasiveness,[14],does not reduce colon cancer cell invasiveness
same,inhibition at 100 µM,[15],~42.7%
same,suppression of MMP-9 activity relative to PMA positive control,[16],did not affect MMP-9 levels
same,inhibition at 100 µM,[17],~54%
same,MMP-9 production,[18],reduce MMP-9 production
same,"oral dose resulting in dose-limiting toxicity (fatigue, confusion, nausea, vomiting)",[19],400 mg administered twice a day
same,maximum tolerated dose,[19]; oral,300 mg twice a day
